Measured values reported in US4540682A, “Pharmaceutical peptides, preparation, use and intermediates” (Burroughs Wellcome Co., priority 1983, dated 1985).

What was measured:
Male mice (CFLP strain) = experiment: Hotplate test; format: in vivo; details: subcutaneous; test repeated 15 mins. after treatment; as free peptide where appropriate; NE = no effect
Text: (§1) (1) Both the hotplate test (Woolfe and MacDonald, J. Pharmacol. Exp. Ther. 80: 300, 1944) and the irritant-induced writhing (stretch) test (Vander Wende and Margolin, Fed. Proc. 15: 494, 1956) are standard in the art for the investigation of analgesic activity. Whereas it is believed that the pain in the latter can be ameliorated either centrally or peripherally, it is thought that that induced in the hotplate test is affected only at the central level.
Male mice (CFLP strain, Hacking and Churchill) were individually placed in a copper-bottomed perspex box suspended in a water bath at 55° C. and observed for signs of discomfort such as shaking or licking the paws, the reaction time (up to a maximum of 30 secs.) being recorded. Groups of five animals then received either a test compound or saline vehicle (0.85%) control by subcutaneous injection, the test being repeated at 15 mins. after treatment. The ED50 figures for the test compounds were calculated from the number of animals having a posttreatment reaction time which was twice the pretreatment figure.

female CD1 mice = experiment: Irritant-induced writhing test, phenylbenzoquinone (PBQ); format: in vivo; details: Mus musculus, po, 0.5 h; p.o.; *test compound administered 30 min. prior to PBQ; read-out: (B) Writhing PBQ ED50 p.o.
Text: as §1
(ii) Phenylbenzoquinone (PBQ). This test was carried out in a parallel manner to that employing acetic acid, except that the period over which the writhing/stretching movements were counted began 10 mins. after administration of the PBQ irritant, the latter being given at a dosage of 2.5 mg/kg and in a dose volume of 10 ml/kg. The ED50 figures for the test compounds were calculated, using linear regression analysis, as the dose in the presence of which only half the number of writhes/stretches was induced compared with the controls.

| Structure (SMILES) | (A) Hotplate ED50 (Male mice (CFLP strain)) | ED50 (female CD1 mice) |
| --- | --- | --- |
| COc1ccc2c(c1)c(CC(=O)O)c(C)n2C(=O)c1ccc(Cl)cc1 [Indomethacin] | NE @ 100 |  |
| CN1CC[C@]23c4c5ccc(O)c4O[C@H]2[C@@H](O)C=C[C@H]3[C@H]1C5 [Morphine] |  | 3.5 mg/kg |
| CC(C)=CCN1CCC2(C)c3cc(O)ccc3CC1C2C (stereo not drawn) [Pentazocine] | NE @ 100 |  |
